Legend:
[1] = molecular target: T1, NK-1 receptor (Homo sapiens, UniProt P25103); assay: NK-1 Receptor Binding Assay (125I-labeled substance P, IM9 cells); conditions: inhibits fifty percent of binding of 125I-substance P to IM9 cells
T1 construct: endogenous in cells; host or cells: IM9 cells (human cell line), whole cells
Procedure, shortened: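 Radioligand binding on human IM9 cells, ended by filtration over glass fiber filters presoaked in 0.1% polyethylenimine. Specific binding of labeled substance P defined with 20 nM unlabeled ligand.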

[2] = molecular target: T2, human NK-2 receptor (Homo sapiens, UniProt P21452); assay: NK-2 Receptor Binding Assay ([125I]iodohistidyl-neurokinin A, CHO-hNK-2R membranes); conditions: inhibits fifty percent of binding of [125I]iodohistidyl-neurokinin A to CHO-hNK-2R membranes
T2 construct: expressed in transfected cells; host or cells: CHO-hNK-2R cells (CHO-derived), membrane preparation
T2 sequence (P21452 1-398): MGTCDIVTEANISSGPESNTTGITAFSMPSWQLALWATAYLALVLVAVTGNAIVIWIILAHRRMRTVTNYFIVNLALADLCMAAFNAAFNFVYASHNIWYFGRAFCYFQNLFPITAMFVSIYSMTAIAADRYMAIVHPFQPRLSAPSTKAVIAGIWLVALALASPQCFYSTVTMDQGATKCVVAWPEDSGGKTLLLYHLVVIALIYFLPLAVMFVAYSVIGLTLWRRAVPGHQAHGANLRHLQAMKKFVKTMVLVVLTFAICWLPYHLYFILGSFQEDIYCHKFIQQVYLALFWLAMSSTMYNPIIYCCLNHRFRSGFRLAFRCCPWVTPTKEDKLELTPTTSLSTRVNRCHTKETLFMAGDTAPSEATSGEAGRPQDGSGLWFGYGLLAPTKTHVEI
Procedure, shortened: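 Membranes from CHO cells stably expressing human NK-2 receptor (~400,000/cell), 40 μg protein per sample, in 50 mM Tris pH 7.4 with 3 mM MnCl2, 0.02% BSA, 4 μg/ml chymostatin. Displacement of 20 pM [125I]iodohistidyl-neurokinin A, 1 hr at room temperature; GF/B filtration, gamma counting. Non-specific binding defined with 1 μM eledoisin.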

T1 sequence (P25103 whole entry): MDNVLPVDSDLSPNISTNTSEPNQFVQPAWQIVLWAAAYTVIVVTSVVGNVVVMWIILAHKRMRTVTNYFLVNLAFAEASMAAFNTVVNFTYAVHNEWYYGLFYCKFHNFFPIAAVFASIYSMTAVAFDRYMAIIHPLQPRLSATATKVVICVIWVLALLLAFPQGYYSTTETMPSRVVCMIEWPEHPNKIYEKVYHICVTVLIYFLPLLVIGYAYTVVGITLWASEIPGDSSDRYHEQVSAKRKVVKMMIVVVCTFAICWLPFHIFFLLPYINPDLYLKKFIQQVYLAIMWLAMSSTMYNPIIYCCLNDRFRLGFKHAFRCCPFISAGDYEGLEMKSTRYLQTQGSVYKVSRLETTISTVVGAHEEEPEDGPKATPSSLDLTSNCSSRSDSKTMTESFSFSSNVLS

- IC50 [1]: 1.2 µM
- IC50 [2]: 2 µM
SMILES: O=C(CN1CCN(c2ccccc2)CC1)NC(CNC(=O)c1ccccc1)Cc1c[nH]c2ccccc12 (centres unmarked) [Example 152]
